Legend:
Type in all cases: in vivo
[1] = tested on: Beet Armyworm (Spodoptera exigua, LAPHEG) ("BAW"); assay: Insecticidal test for beet armyworm, 128-well diet tray assay; settings: 168 h, second instar larvae, 50 μg/cm^2 on artificial diet, 25° C., five to seven days, percent mortality averaged over eight wells
Procedure: Insecticidal Test for Beet Armyworm (Spodoptera exigua, LAPHEG) (“BAW”)
(§1) Bioassays on beet armyworm (BAW; Spodoptera exigua: Lepidoptera) are conducted using a 128-well diet tray assay. One to five second instar BAW larvae are placed in each well (3 mL) of the diet tray that had been previously filled with 1 mL of artificial diet to which 50 μg/cm^2 of the test compound (dissolved in 50 μL of 90:10 acetone-water mixture) had been applied (to each of eight wells) and then allowed to dry. Trays are covered with a clear self-adhesive cover, vented to allow gas exchange, and held at 25° C., 14:10 light-dark for five to seven days. Percent mortality is recorded for the larvae in each well; activity in the eight wells is then averaged.

[2] = tested on: Cabbage Looper (Trichloplusia ni, TRIPNI) ("CL"); assay: Insecticidal test for cabbage looper, 128-well diet tray assay; settings: Trichoplusia ni, 168 h; second instar larvae, 50 μg/cm^2 on artificial diet, 25° C., five to seven days, percent mortality averaged over eight wells
Procedure: Insecticidal Test for Cabbage Looper (Trichloplusia ni, TRIPNI) (“CL”)
as §1, with “cabbage looper (CL; Trichloplusia ni:” for “beet armyworm (BAW; Spodoptera exigua:”, “CL” for “BAW”

[3] = tested on: Yellow Fever Mosquito (Aedes aegypti, AEDSAE) ("YFM"); assay: Insecticidal test for yellow fever mosquito, 96-well plate larval assay; settings: about 1 day-old larvae, 4000 ppm master solution diluted, room temperature, scored for mortality after 3 days
Procedure: Insecticidal Test for Yellow Fever Mosquito (Aedes aegypti, AEDSAE) (“YFM”)
Master plates containing 400 μg of a molecule dissolved in 100 μL of dimethyl sulfoxide (DMSO) (equivalent to a 4000 ppm solution) are used. A master plate of assembled molecules contains 15 μL per well. To this plate, 135 μL of a 90:10 water/acetone mixture is added to each well. A robot (Biomek® NXP Laboratory Automation Workstation) is programmed to dispense 15 μL aspirations from the master plate into an empty 96-well shallow plate (“daughter” plate). There are 6 reps (“daughter” plates) created per master. The created “daughter” plates are then immediately infested with YFM larvae.
The day before plates are to be treated, mosquito eggs are placed in Millipore water containing liver powder to begin hatching (4 g. into 400 mL). After the “daughter” plates are created using the robot, they are infested with 220 μL of the liver powder/larval mosquito mixture (about 1 day-old larvae). After plates are infested with mosquito larvae, a non-evaporative lid is used to cover the plate to reduce drying. Plates are held at room temperature for 3 days prior to grading. After 3 days, each well is observed and scored based on mortality.

Row | Structure (SMILES) | pest or weed control at 50 µg/cm2 [1] [%] | pest or weed control at 50 µg/cm2 [2] [%] | YFM % Control [3]
1 | Cc1ccc(C(C)C)c(N2C(=O)CS/C2=N\C(=O)N/N=C/c2ccc(-c3ncn(-c4ccc(OC(F)(F)F)cc4)n3)cc2)c1 [Compound A1, N—((Z)-3-(2-isopropyl-5-methylphenyl)-4-oxothiazolidin-2-ylidene)-2-((E)-4-(1-(4-(trifluoromethoxy)phenyl)-1H-1,2,4-triazol-3-yl)benzylidene)hydrazine-1-carboxamide] | 50 to 100 | 50 to 100 | –
2 | Cc1ccc(OCC(F)(F)F)c(N2C(=O)CS/C2=N\C(=O)N/N=C/c2ccc(-c3ncn(-c4ccc(OC(F)(F)F)cc4)n3)cc2)c1 [Compound A6, N—((Z)-3-(5-Methyl-2-(2,2,2-trifluoroethoxy)phenyl)-4-oxothiazolidin-2-ylidene)-2-((E)-4-(1-(4-(trifluoromethoxy)phenyl)-1H-1,2,4-triazol-3-yl)benzylidene)hydrazine-1-carboxamide] | 50 to 100 | 50 to 100 | –
3 | COc1ccc(N2C(=O)CS/C2=N\C(=O)N/N=C/c2ccc(-c3ncn(-c4ccc(OC(F)(F)F)cc4)n3)cc2)c(C)c1 [Compound A7, N—((Z)-3-(4-Methoxy-2-methylphenyl)-4-oxothiazolidin-2-ylidene)-2-((E)-4-(1-(4-(trifluoromethoxy)phenyl)-1H-1,2,4-triazol-3-yl)benzylidene)hydrazine-1-carboxamide] | 50 to 100 | 50 to 100 | A (80-100)
4 | Cc1ccc(C(F)(F)F)c(N2C(=O)CS/C2=N\C(=O)N/N=C/c2ccc(-c3ncn(-c4ccc(OC(F)(F)F)cc4)n3)cc2)c1 [Compound A9, N—((Z)-3-(5-methyl-2-(trifluoromethyl)phenyl)-4-oxothiazolidin-2-ylidene)-2-((E)-4-(1-(4-(trifluoromethoxy)phenyl)-1H-1,2,4-triazol-3-yl)benzylidene)hydrazine-1-carboxamide] | 50 to 100 | 50 to 100 | –
5 | CCOc1ccc(C)cc1N1C(=O)CS/C1=N\C(=O)N/N=C/c1ccc(-c2ncn(-c3ccc(OC(F)(F)F)cc3)n2)cc1 [Compound A5, N—((Z)-3-(2-Ethoxy-5-methylphenyl)-4-oxothiazolidin-2-ylidene)-2-((E)-4-(1-(4-(trifluoromethoxy)phenyl)-1H-1,2,4-triazol-3-yl)benzylidene)hydrazine-1-carboxamide] | 50 to 100 | 50 to 100 | –
6 | CC(C)c1ccccc1N1C(=O)CS/C1=N\C(=O)N/N=C/c1ccc(-c2ncn(-c3ccc(OC(F)(F)F)cc3)n2)cc1 [Compound A2, N—((Z)-3-(2-Isopropylphenyl)-4-oxothiazolidin-2-ylidene)-2-((E)-4-(1-(4-(trifluoromethoxy)phenyl)-1H-1,2,4-triazol-3-yl)benzylidene)hydrazine-1-carboxamide] | 50 to 100 | 50 to 100 | A (80-100)
7 | Cc1ccc(Cl)c(N2C(=O)CS/C2=N\C(=O)N/N=C/c2ccc(-c3ncn(-c4ccc(OC(F)(F)F)cc4)n3)cc2)c1 [Compound A4, N—((Z)-3-(2-Chloro-5-methylphenyl)-4-oxothiazolidin-2-ylidene)-2-((E)-4-(1-(4-(trifluoromethoxy)phenyl)-1H-1,2,4-triazol-3-yl)benzylidene)hydrazine-1-carboxamide] | 50 to 100 | 50 to 100 | A (80-100)
8 | CCc1cccc(C)c1N1C(=O)CS/C1=N\C(=O)N/N=C/c1ccc(-c2ncn(-c3ccc(OC(F)(F)F)cc3)n2)cc1 [Compound A3, N—((Z)-3-(2-Ethyl-6-methylphenyl)-4-oxothiazolidin-2-ylidene)-2-((E)-4-(1-(4-(trifluoromethoxy)phenyl)-1H-1,2,4-triazol-3-yl)benzylidene)hydrazine-1-carboxamide] | 50 to 100 | 50 to 100 | –
9 | CCOc1ccccc1N1C(=O)CS/C1=N\C(=O)N/N=C/c1ccc(-c2ncn(-c3ccc(OC(F)(F)F)cc3)n2)cc1 [Compound A8, N—((Z)-3-(2-Ethoxyphenyl)-4-oxothiazolidin-2-ylidene)-2-((E)-4-(1-(4-(trifluoromethoxy)phenyl)-1H-1,2,4-triazol-3-yl)benzylidene)hydrazine-1-carboxamide] | 50 to 100 | 50 to 100 | –

Source: patent US10590120B2, “Pesticidal compositions and methods” (Dow AgroSciences LLC, priority 2016, dated 2020)
